Results on twelve molecules are retold here after ChEMBL document CHEMBL1146143, “New ligand-based approach for the discovery of antitrypanosomal compounds” (2006).

Assay [1] has as its system Trypanosoma cruzi. The assay is described as follows: Antitrypanosomal activity against Trypanosoma cruzi epimastigotes at 10 ug/ml. The assay is classed as functional.
Assay [2] deals with J774. Description: Unspecific cytotoxicity against murine J774 macrophages at 1 ug/ml. The assay is classed as functional, Mus musculus.
For assay [3], the system named is Trypanosoma cruzi. The assay is described as follows: Antitrypanosomal activity against Trypanosoma cruzi amastigotes at 10 ug/ml. The assay is classed as functional.
The subject of assay [4] is Trypanosoma cruzi. Description: Antitrypanosomal activity against Trypanosoma cruzi epimastigotes at 1 ug/ml. It counts as functional.
The test system of assay [5] is J774. Description: Unspecific cytotoxicity against murine J774 macrophages at 10 ug/ml. The assay is classed as functional, Mus musculus.
Assay [6] concerns Trypanosoma cruzi. Description: Antitrypanosomal activity against Trypanosoma cruzi epimastigotes at 100 ug/ml. The assay is classed as functional.
The test system of assay [7] is J774. The assay is described as follows: Unspecific cytotoxicity against murine J774 macrophages at 100 ug/ml. The assay is classed as functional, Mus musculus.
For assay [8], the system named is Mus musculus. Description: Antitrypanosomal activity against Trypanosoma cruzi infected NMRI mice at 50 mg/kg/day. The assay is classed as functional.
In assay [9] the test system is Trypanosoma cruzi. Description: Antitrypanosomal activity against Trypanosoma cruzi amastigotes at 100 ug/ml. It counts as functional.
In assay [10] the test system is Trypanosoma cruzi. The assay is described as follows: Antitrypanosomal activity against Trypanosoma cruzi amastigotes at 1 ug/ml. The assay is classed as functional.

As for `O=C1CN(CCCCCCCl)c2ccc([N+](=O)[O-])cc2N1`, the Activity in assay [1] was 72.1%; in assay [2] it was 16.6%; in assay [3], 100%; in assay [4], 23.2%; in assay [5] it was 32.9%; in assay [6], 90.9%. The molecule also displayed an Activity in [7] of 97.4%.
Turning to `CN1CC(=O)N(C)c2cc([N+](=O)[O-])ccc21`, the Activity is listed as 60.7% in assay [8]; 21.6% in assay [1]; 0% in assay [2]; 22.5% in assay [4]; 0% in assay [5]; 72.7% in assay [6]. Also, the values for the Activity in assay [7] and in [9] were 0% and 85.4%, respectively.
For `O=C1Nc2cc([N+](=O)[O-])ccc2N2Cc3ccccc3CC12` (stereo not given), the Activity in assay [1] is 29.4%; in assay [2] it was 0%; in assay [4], 19.4%; in assay [5], 0%; in [6], 72.1%; in assay [7], 50.4%.
Turning to `O=C(CCl)Nc1cc([N+](=O)[O-])ccc1N1CCCCC1`, the Activity is 34.8% in assay [1]; 8.1% in assay [2]; 7.1% in assay [4]; 6.3% in assay [5]; 84% in assay [6]; 24.9% in assay [7].
On to `O=C(CN1CCCCC1)Nc1cc([N+](=O)[O-])ccc1F`, for which the Activity in [1] was 4.4%; in assay [4], 0%; in assay [6], 14.3%.
As to `O=C1Nc2cc([N+](=O)[O-])ccc2N2CCCCC12` (stereo not given), the Activity worked out at 30.9% in assay [1]; 2.4% in assay [2]; 3.9% in [4]; 5.6% in assay [5]; 77% in assay [6]; 34.2% in assay [7].
As to `CN1C(=O)CN(CCCCCCl)c2ccc([N+](=O)[O-])cc21`, the Activity is recorded as 82.2% in assay [1]; 0% in [2]; 15% in [4]; 17.8% in assay [5]; 83.3% in assay [6]; 99.5% in assay [7].
For `CN1C(=O)C[N+](C)(C)c2ccc([N+](=O)[O-])cc21.[Cl-]`, the Activity is on record as 9% in [1]; 9.8% in assay [2]; 0.9% in [4]; 10.5% in assay [5]; 67.2% in assay [6]; 64.8% in [7].
Turning to `CC1CS(=O)(=O)CCN1/N=C/c1ccc([N+](=O)[O-])o1` (stereo not given) [NIFURTIMOX], the Activity in assay [8] is listed as 100%; in [1], 90%; in assay [2], 0%; in assay [10], 88.1%; in assay [3] it was 94.4%; in assay [4] it was 75.5%. In addition, the Activity in [5] was 0.6%; in assay [6], 98.7%; in assay [7], 25.9%; in assay [9] it was 100%.
Turning to `O=C(CN1CCCCC1)Nc1cc([N+](=O)[O-])ccc1Cl`, the Activity in [1] was 1.3%; in assay [4], 21.9%; in [6] it was 11%.
As to `O=C1Nc2cc([N+](=O)[O-])ccc2N2CCCC12` (stereo not given), the Activity in assay [1] was determined as 70.3%; in [2], 0%; in assay [3], 13.3%; in [4], 25.6%; in [5], 0%; in assay [6] it was 90.5%. The Activity is listed as 23.6% in assay [7] and 30.2% in [9].
As for `O=C(Cn1ccnc1[N+](=O)[O-])NCc1ccccc1` [BENZNIDAZOLE], the Activity came out at 1.9% in assay [2]; 83.2% in assay [10]; 9.2% in [3]; 1.6% in assay [5]; 1.4% in assay [7]; 96.6% in [9].
